One experiment addresses T1, PDK1 kinase (Homo sapiens, UniProt O15530).
T1 sequence (O15530 1-556): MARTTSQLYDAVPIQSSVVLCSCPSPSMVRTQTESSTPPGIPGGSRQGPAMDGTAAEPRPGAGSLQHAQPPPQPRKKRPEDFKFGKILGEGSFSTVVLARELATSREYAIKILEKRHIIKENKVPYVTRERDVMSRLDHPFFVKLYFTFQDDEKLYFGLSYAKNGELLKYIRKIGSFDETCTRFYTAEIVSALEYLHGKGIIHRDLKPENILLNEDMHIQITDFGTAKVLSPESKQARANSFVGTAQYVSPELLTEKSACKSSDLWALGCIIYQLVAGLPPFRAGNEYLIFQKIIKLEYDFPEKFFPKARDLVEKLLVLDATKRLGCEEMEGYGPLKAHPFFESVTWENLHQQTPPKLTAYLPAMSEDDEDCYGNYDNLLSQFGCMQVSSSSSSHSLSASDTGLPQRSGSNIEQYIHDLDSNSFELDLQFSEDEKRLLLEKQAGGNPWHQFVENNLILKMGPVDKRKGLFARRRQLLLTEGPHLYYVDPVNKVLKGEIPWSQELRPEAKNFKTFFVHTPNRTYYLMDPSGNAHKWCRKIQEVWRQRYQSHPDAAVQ
Nature of the experiment: PDK1 Kinase Alpha Screen Assay. To be noted: read-out: PDK1 IC50. In kind it is biochemical. An outline of the steps:
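Detection used AlphaScreen: streptavidin donor and protein A acceptor beads (25 μg/ml each) bridged by a phospho-(Ser/Thr) PKA substrate antibody binding phosphorylated peptide. Reaction: biotin-PDK1-4 peptide (50 nM), ATP (10 uM), PDK1 in pH 7.5 Tris/MgCl2/DTT buffer, 3-18 hours, EDTA-stopped.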

The test system of another experiment is PC-3 cells. Nature of the experiment: Cell Proliferation Assay (Cell Titer Glo), PC-3 cell line. It counts as cell-based. To be noted: Homo sapiens, read-out: CPEC50 PC3. An outline of the steps: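 Cell Titer Glo luminescence, read after fresh medium replaced the dosing medium, gave viability of PC-3 cells plated at 1000 cells/well. Compounds, 1:3 serially diluted in DMSO at 500× and then in medium, were added after 3-5 h adhesion and incubated 3 days at 37° C.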
Background: ATP-based viability assays read luminescence as a measure of living cells.

The mark [1] stands for this setting: PC-3, Cell Proliferation Assay, PC3 cells.

For 27 molecules, IC50 and EC50 results are on record in US7932262B2 (Novartis AG, priority 2006, dated 2011).

Read-outs that look alike come from different tables or passages of the source.

Consider `CC(C)Cn1cc(-c2ccc3cnc(Nc4ccc(S(=O)(=O)NCCN5CCCCC5)cc4)nc3c2)cn1` [Compound 711, 4-(7-(1-isobutyl-1H-pyrazol-4-yl)quinazolin-2-ylamino)-N-(2-(piperidin-1-yl)ethyl)benzenesulfonamide], for which the IC50 (in general, the point on the concentration scale where inhibition reaches its midpoint) at PDK1 kinase (PDK1 Kinase Alpha Screen Assay) is < 5 µM. Also, the EC50 in the experiment with PC-3 cells (setting [1]) is < 5 µM.

With `CC(C)Cn1cc(-c2ccc3cnc(Nc4ccc(S(=O)(=O)NCCN5CCN(C)CC5)cc4)nc3c2)cn1` [Compound 712, 4-(7-(1-isobutyl-1H-pyrazol-4-yl)quinazolin-2-ylamino)-N-(2-(4-methylpiperazin-1-yl)ethyl)benzenesulfonamide], the IC50 at PDK1 kinase (PDK1 Kinase Alpha Screen Assay) was < 5 µM. Further, the EC50 in the experiment with PC-3 cells (setting [1]) is < 5 µM.

`CC(C)Cn1cc(-c2ccc3cnc(Nc4ccc(S(=O)(=O)NCCN5CCCC5)cc4)nc3c2)cn1` [Compound 713, 4-(7-(1-isobutyl-1H-pyrazol-4-yl)quinazolin-2-ylamino)-N-(2-(pyrrolidin-1-yl)ethyl)benzenesulfonamide]: the IC50 on PDK1 kinase (PDK1 Kinase Alpha Screen Assay) was < 5 µM. The EC50 in the experiment on PC-3 cells (setting [1]) is < 5 µM.

With `C#Cc1cc2cnc(Nc3ccc(S(N)(=O)=O)cc3)nc2cc1OC1CCN(C(C)C)CC1` [Compound 714, 4-(6-ethynyl-7-(1-isopropylpiperidin-4-yloxy)quinazolin-2-ylamino)benzenesulfonamide], the IC50 at PDK1 kinase (PDK1 Kinase Alpha Screen Assay) is < 5 µM. Further, the EC50 with PC-3 cells (setting [1]) was < 5 µM.

Take `Cn1cc(-c2cc(Cl)cc3cnc(Nc4ccc(S(N)(=O)=O)cc4)nc23)cn1` [Compound 926, 4-(6-chloro-8-(1-methyl-1H-pyrazol-4-yl)quinazolin-2-ylamino)benzenesulfonamide]: the IC50 at PDK1 kinase is < 5 µM. Also, in the experiment with PC-3 cells (PC-3, PC3 cells), the EC50 was < 5 µM.

Regarding `NS(=O)(=O)c1ccc(Nc2ncc3cc(Cl)cc(-c4ccc(NCCN5CCCC5)nc4)c3n2)cc1` [Compound 927, 4-(6-choro-8-(6-(2-(pyrrolidin-1-yl)ethylamino)pyridin-3-yl)quinazolin-2-ylamino)benzenesulfonamide], the IC50 at PDK1 kinase is < 5 µM. For the same molecule, the EC50 in the experiment with PC-3 cells (PC-3, PC3 cells) is < 5 µM.

For `Nc1ncc(-c2cccc3cnc(Nc4ccc(S(N)(=O)=O)cc4)nc23)cc1C(F)(F)F` [Compound 929, 4-(8-(6-amino-5-(trifluoromethyl)pyridin-3-yl)quinazolin-2-ylamino)benzenesulfonamide], the IC50 on PDK1 kinase was < 5 µM. Further, in the experiment on PC-3 cells (PC-3, PC3 cells), the EC50 was < 5 µM.

Turning to `Nc1cc(C(F)(F)F)c(-c2cccc3cnc(Nc4ccc(S(N)(=O)=O)cc4)nc23)cn1` [Compound 930, 4-(8-(6-amino-4-(trifluoromethyl)pyridin-3-yl)quinazolin-2-ylamino)benzenesulfonamide], at PDK1 kinase, the IC50 is < 5 µM. Moreover, in the experiment with PC-3 cells (PC-3, PC3 cells), the EC50 was < 5 µM.

As for `Cn1cc(-c2cccc3cnc(Nc4ccc(S(N)(=O)=O)cc4)nc23)cn1` [Compound 931, 4-(8-(1-methyl-1H-pyrazol-4-yl)quinazolin-2-ylamino)benzenesulfonamide], the half-inhibitory concentration (IC50) at PDK1 kinase is < 5 µM. For the same molecule, the EC50 with PC-3 cells (PC-3, PC3 cells) lay within 5 to 10 µM.

With `NS(=O)(=O)c1ccc(Nc2ncc3cccc(CNCCN4CCCC4)c3n2)cc1` [Compound 935, 4-(8-((2-(pyrrolidin-1-yl)ethylamino)methyl)quinazolin-2-ylamino)benzenesulfonamide], the IC50 at PDK1 kinase was < 5 µM. For the same molecule, the EC50 with PC-3 cells (PC-3, PC3 cells) was 5 to 10 µM.

Turning to `CN(C)[C@H]1CCN(Cc2cccc3cnc(Nc4ccc(S(N)(=O)=O)cc4)nc23)C1` [Compound 936, (S)-4-(8-((3-(dimethylamino)pyrrolidin-1-yl)methyl)quinazolin-2-ylamino)benzenesulfonamide], the IC50 on PDK1 kinase is < 5 µM. Besides, in the experiment with PC-3 cells (PC-3, PC3 cells), the EC50 was < 5 µM.

For `CN1CCC(NCc2cccc3cnc(Nc4ccc(S(N)(=O)=O)cc4)nc23)CC1` [Compound 937, 4-(8-((1-methylpiperidin-4-ylamino)methyl)quinazolin-2-ylamino)benzenesulfonamide], the IC50 on PDK1 kinase was < 5 µM. For the same molecule, the EC50 with PC-3 cells (PC-3, PC3 cells) lay in the range of 5 to 10 µM.

Consider `CN(C)[C@@H]1CCN(Cc2cccc3cnc(Nc4ccc(S(N)(=O)=O)cc4)nc23)C1` [Compound 938, (R)-4-(8-((3-(dimethylamino)pyrrolidin-1-yl)methyl)quinazolin-2-ylamino)benzenesulfonamide], for which the IC50 at PDK1 kinase was < 5 µM. Further, in the experiment with PC-3 cells (PC-3, PC3 cells), the EC50 was in the range of 5 to 10 µM.

Regarding `Cc1ccc(-c2ccc3cnc(Nc4ccc(S(N)(=O)=O)cc4)nc3c2)c(F)n1` [Compound 939, 4-(7-(2-fluoro-6-methylpyridin-3-yl)quinazolin-2-ylamino)benzenesulfonamide], at PDK1 kinase, the concentration for half-maximal inhibition (IC50) is < 5 µM. Moreover, in the experiment with PC-3 cells (PC-3, PC3 cells), the EC50 is < 5 µM.

Consider `CC(C)N1CCC(c2c(O)ccc3cnc(Nc4ccc(F)cc4)nc23)CC1` [Compound 940, 2-(4-fluorophenylamino)-8-(1-isopropylpiperidin-4-yl)quinazolin-7-ol], for which, on PDK1 kinase, the half-maximal inhibitory concentration (IC50) is < 5 µM. Moreover, in the experiment with PC-3 cells (PC-3, PC3 cells), the EC50 was in the range of 5 to 10 µM.

As for `NS(=O)(=O)c1ccc(Nc2ncc3cccc(-c4cncc(CN5CCCC5)c4)c3n2)cc1` [Compound 941, 4-(8-(5-(pyrrolidin-1-ylmethyl)pyridin-3-yl)quinazolin-2-ylamino)benzenesulfonamide], on PDK1 kinase, the half-maximal inhibitory concentration (IC50) is < 5 µM. The EC50 with PC-3 cells (PC-3, PC3 cells) is < 5 µM.

For the molecule `NS(=O)(=O)c1ccc(Nc2ncc3cccc(-c4cncc(CN5CCOCC5)c4)c3n2)cc1` [Compound 942, 4-(8-(5-(morpholinomethyl)pyridin-3-yl)quinazolin-2-ylamino)benzenesulfonamide], the IC50 at PDK1 kinase was < 5 µM. Also, the EC50 in the experiment on PC-3 cells (PC-3, PC3 cells) was < 5 µM.

Consider `CN1CCN(Cc2cncc(-c3cccc4cnc(Nc5ccc(S(N)(=O)=O)cc5)nc34)c2)CC1` [Compound 943, 4-(8-(5-((4-methylpiperazin-1-yl)methyl)pyridin-3-yl)quinazolin-2-ylamino)benzenesulfonamide], for which the IC50 on PDK1 kinase is < 5 µM. For the same molecule, the EC50 in the experiment with PC-3 cells (PC-3, PC3 cells) was < 5 µM.

Turning to `NS(=O)(=O)c1ccc(Nc2ncc3cccc(-c4cncc(CN5CCNC(=O)C5)c4)c3n2)cc1` [Compound 944, 4-(8-(5-((3-oxopiperazin-1-yl)methyl)pyridin-3-yl)quinazolin-2-ylamino)benzenesulfonamide], the IC50 on PDK1 kinase is < 5 µM. Also, the EC50 with PC-3 cells (PC-3, PC3 cells) is 5 to 10 µM.

For the molecule `Cn1cc(-c2ccc3cnc(Nc4ccc(S(N)(=O)=O)cc4)nc3c2-c2ccc(NCCN3CCCC3)nc2)cn1` [Compound 945, 4-(7-(1-methyl-1H-pyrazol-4-yl)-8-(6-(2-(pyrrolidin-1-yl)ethylamino)pyridin-3-yl)quinazolin-2-ylamino)benzenesulfonamide], the 50% inhibitory concentration (IC50) at PDK1 kinase was < 5 µM. In the experiment with PC-3 cells (PC-3, PC3 cells), the EC50 was < 5 µM.

Consider `CC(C)NCc1cncc(-c2cccc3cnc(Nc4ccc(S(N)(=O)=O)cc4)nc23)c1` [Compound 946, 4-(8-(5-((isopropylamino)methyl)pyridin-3-yl)quinazolin-2-ylamino)benzenesulfonamide], for which the half-maximal inhibitory concentration (IC50) on PDK1 kinase was < 5 µM. The EC50 with PC-3 cells (PC-3, PC3 cells) was < 5 µM.

On to `NC(=O)C1CCN(Cc2cncc(-c3cccc4cnc(Nc5ccc(S(N)(=O)=O)cc5)nc34)c2)CC1` [Compound 947, 1-((5-(2-(4-sulfamoylphenylamino)quinazolin-8-yl)pyridin-3-yl)methyl)piperidine-4-carboxamide], for which, on PDK1 kinase, the 50% inhibitory concentration (IC50) is < 5 µM. Also, in the experiment with PC-3 cells (PC-3, PC3 cells), the EC50 fell in the range of 5 to 10 µM.

As for `NS(=O)(=O)c1ccc(Nc2ncc3cccc(-c4cncc(CNC5CCOCC5)c4)c3n2)cc1` [Compound 948, 4-(8-(5-((tetrahydro-2H-pyran-4-ylamino)methyl)pyridin-3-yl)quinazolin-2-ylamino)benzenesulfonamide], the half-inhibitory concentration (IC50) at PDK1 kinase is < 5 µM. In addition, in the experiment with PC-3 cells (PC-3, PC3 cells), the EC50 was < 5 µM.

As to `CC(=O)N1CCN(Cc2cncc(-c3cccc4cnc(Nc5ccc(S(N)(=O)=O)cc5)nc34)c2)CC1` [Compound 949, 4-(8-(5-((4-acetylpiperazin-1-yl)methyl)pyridin-3-yl)quinazolin-2-ylamino)benzenesulfonamide], at PDK1 kinase, the IC50 was < 5 µM. In the experiment with PC-3 cells (PC-3, PC3 cells), the EC50 lay in the range of 5 to 10 µM.

As to `CN(Cc1cncc(-c2cccc3cnc(Nc4ccc(S(N)(=O)=O)cc4)nc23)c1)C1CCOCC1` [Compound 950, 4-(8-(5-((methyl(tetrahydro-2H-pyran-4-yl)amino)methyl)pyridin-3-yl)quinazolin-2-ylamino)benzenesulfonamide], the half-inhibitory concentration (IC50) at PDK1 kinase is < 5 µM. In the experiment on PC-3 cells (PC-3, PC3 cells), the EC50 was < 5 µM.

As to `CN(C)[C@@H]1CCN(c2ccc(-c3cccc4cnc(Nc5ccc(S(N)(=O)=O)cc5)nc34)cn2)C1` [Compound 951, (R)-4-(8-(6-(3-(dimethylamino)pyrrolidin-1-yl)pyridin-3-yl)quinazolin-2-ylamino)benzenesulfonamide], the half-inhibitory concentration (IC50) at PDK1 kinase was < 5 µM. Besides, the EC50 in the experiment on PC-3 cells (PC-3, PC3 cells) is < 5 µM.

On to `CN(C)[C@H]1CCN(c2ccc(-c3cccc4cnc(Nc5ccc(S(N)(=O)=O)cc5)nc34)cn2)C1` [Compound 952, (S)-4-(8-(6-(3-(dimethylamino)pyrrolidin-1-yl)pyridin-3-yl)quinazolin-2-ylamino)benzenesulfonamide], for which, at PDK1 kinase, the concentration for half-maximal inhibition (IC50) is < 5 µM. Moreover, the EC50 in the experiment with PC-3 cells (PC-3, PC3 cells) is < 5 µM.
